From patent US20210186989A1, “ENHANCED TRAINED IMMUNITY IN MYELOID CELLS BY SHIP-1 INHIBITION” (CENTRO NACIONAL DE INVESTIGACIONES CARDIOVASCULARES CARLOS …, priority 2018, published 2021)

Columns and labels:
[1] = tested on: mouse bone marrow-derived macrophages (BMDMs); assay: Trained immunity in vitro model, TNFα by ELISA after LPS; format: cell-based; conditions: for boost of trained immunity (TNF alpha) in absence of SHIP-1: LysMΔSHIP-1 BMDMs, beta-glucan-trained, 30 min pre-incubation; for TNF-alpha overproduction in trained LysMΔSHIP-1 BMDMs: 30 min pre-incubation before beta-glucan training
Description: BMDMs (10^5) were plated in 96-well plates (200-μl final volume, Corning) and stimulated with R10 or 100 μg/ml β-glucan (whole glucan particles, WGP, Biothera, Eagan, Minn.) for 24h. Then, cells were washed and rested 3 days in culture medium. At day 4, BMDMs were washed again and primed with 25 ng/ml IFNγ (BD Biosciences, San Jose, Calif.) for 24h. On day 5, a final wash was performed and cells were stimulated with R10 or 1 μg/ml Escherichia coli LPS (EK, Invivogen, San Diego, Calif.). After 24h, supernatants were collected for TNFα measurement by ELISA (Opteia ELISA kit, BD Biosciences).
When required, BMDMs were pre-incubated for 30 minutes prior to β-glucan training with 1.5 μM Syk inhibitor (R406, Hozel diagnostic, Cologne, Germany), […] Raf-1 inhibitor (GW5074, Sigma), 500 μM MTA (5′-Deoxy-5′-(methylthio)adenosine, Sigma), 6 μM Pargyline (Sigma) or SHIP-1 inhibitor (SHIPi, 3-α-aminocholestane, 3AC, Calbiochem, Darmstad, Germany) at the indicated doses. Inhibitors were also added in the first wash-out, before the resting period.
(§1) For TNFα normalization, the fold of cells in each condition was calculated as follows: (Live cell number in condition X)/(live cell number in non-trained WT condition). In case of SHIP-1 inhibition experiments, non-treated cells were used as reference. Thus, TNFα per cell number was normalized as (absolute TNFα value)/(fold of cells).

Candida albicans SC5314 = assay: In vivo training followed by lethal systemic Candida albicans infection, survival; set-up: species or system mouse; conditions: 0.11 mg 3AC i.p. days -8 and -7, lethal 2·10^6 C. albicans i.v.
Description: Mice were trained with either two intraperitoneal (i.p.) injections of 1 mg β-glucan particles on days −7 and −4 or 2·10^4 Candida albicans intravenously (i.v) on day −7. Sterile PBS was used as control. One week later, mice were challenged with 5 μg E. coli LPS (serotype 055:B5, Sigma) i.p. and blood was collected 60 min later to assess the serum TNFα (Mouse TNFα DuoSet, R&D Systems). Alternatively, mice were lethally infected with 2·10^6 C. albicans i.v. and monitored daily for weight, general health and survival, following the institutional guidance. When required mice were i.p. treated with 0.11 mg 3AC on days −8 and −7.3AC was diluted in PBS 0.3% hydroxypropylcellulose (Sigma), used as control.

human PBMCs = assay: Viability of cells in human PBMC training scheme; format: cell-based; conditions: non-trained cells in human PBMC experiment (not shown)
Description: To assess cell viability, 3·10^6 total PBMCs were plated in 24-well plates (1200-μl final volume, Corning) and followed the training scheme described here. At day 7, prior to LPS stimulation, cells were collected in PBS/EDTA and stained on ice-cold FACS Buffer for flow cytometry analysis.

[2] = tested on: human peripheral blood mononuclear cells (PBMCs); assay: Trained immunity in vitro model in human PBMCs, TNFα by ELISA after LPS; format: cell-based; conditions: beta-glucan-trained human PBMCs, 10 μM 3AC, LPS stimulation
Description: Total PBMCs (5·10^5) were plated in 96-well plates (200-μl final volume) and stimulated with 100 μg/ml β-glucan for 24h. Then, cells were washed and rested 6 days in culture medium. At day 7, PBMCs were stimulated with 1 μg/ml LPS (EK). After 24h, supernatants were collected for TNFα measurement by ELISA (Human TNFα DuoSet, R&D Systems, Abingdon, UK). When required, PBMCs were pre-incubated for 30 minutes prior to β-glucan training with 10 μM 3AC. Inhibitor was also added together with the first wash-out, before the resting period.
as §1

SHIP-1 = molecular target: T1, SHIP-1 (Homo sapiens, UniProt Q92835); conditions: SHIP-1 inhibitor 3AC; value given in parentheses, no test described; cited from earlier work
T1 sequence (Q92835 1-1189): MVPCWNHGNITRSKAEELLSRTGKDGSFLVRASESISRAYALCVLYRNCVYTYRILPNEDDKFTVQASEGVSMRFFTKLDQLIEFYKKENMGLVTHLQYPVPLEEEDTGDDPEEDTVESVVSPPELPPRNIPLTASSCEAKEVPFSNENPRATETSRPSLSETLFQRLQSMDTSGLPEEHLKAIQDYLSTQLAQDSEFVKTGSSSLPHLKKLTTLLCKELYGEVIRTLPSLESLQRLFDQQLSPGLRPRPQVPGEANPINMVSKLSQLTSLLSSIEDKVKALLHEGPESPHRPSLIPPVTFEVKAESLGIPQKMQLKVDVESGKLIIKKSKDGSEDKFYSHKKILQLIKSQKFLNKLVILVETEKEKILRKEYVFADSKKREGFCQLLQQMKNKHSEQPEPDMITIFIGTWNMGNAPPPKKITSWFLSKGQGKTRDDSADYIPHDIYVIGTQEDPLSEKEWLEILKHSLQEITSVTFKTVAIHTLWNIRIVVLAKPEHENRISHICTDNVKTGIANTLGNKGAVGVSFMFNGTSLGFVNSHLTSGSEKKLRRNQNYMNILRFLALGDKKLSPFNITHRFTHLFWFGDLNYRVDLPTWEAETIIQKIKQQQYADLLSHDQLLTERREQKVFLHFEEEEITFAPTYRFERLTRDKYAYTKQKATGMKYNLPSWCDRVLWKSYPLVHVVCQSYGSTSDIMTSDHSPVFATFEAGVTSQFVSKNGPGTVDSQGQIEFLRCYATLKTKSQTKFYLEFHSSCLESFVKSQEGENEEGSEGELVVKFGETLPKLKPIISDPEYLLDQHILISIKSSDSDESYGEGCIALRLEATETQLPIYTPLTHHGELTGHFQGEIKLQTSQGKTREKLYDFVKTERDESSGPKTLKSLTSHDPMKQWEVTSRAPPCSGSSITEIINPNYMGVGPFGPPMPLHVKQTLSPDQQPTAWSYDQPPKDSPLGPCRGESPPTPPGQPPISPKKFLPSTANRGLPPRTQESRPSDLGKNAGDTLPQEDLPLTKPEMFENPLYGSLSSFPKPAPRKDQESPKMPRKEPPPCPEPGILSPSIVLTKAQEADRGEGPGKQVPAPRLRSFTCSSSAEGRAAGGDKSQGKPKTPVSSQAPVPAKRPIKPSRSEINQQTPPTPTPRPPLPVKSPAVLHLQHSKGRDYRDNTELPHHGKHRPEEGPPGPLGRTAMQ

mouse BMDMs = assay: BMDM viability in the training scheme (FACS, Hoechst 33258 exclusion); format: cell-based
Description: To assess receptor expression and cell viability, 6·10^5 BMDMs were plated in non-treated 24-well plates (1200-μl final volume, Corning) and followed the training scheme described above. Dectin-1 expression was evaluated at day 0 prior to β-glucan addition. Cell viability and TLR4 expression were assessed on day 5 before LPS stimulation. At indicated times, cells were collected in PBS/EDTA and stained on ice-cold FACS Buffer (PBS/EDTA plus 3% FBS) for flow cytometry analysis.
Samples were stained with the appropriate antibody cocktails in ice-cold FACS Buffer at 4° C. for 15 minutes. Antibodies included mouse PE-anti-TLR4 (BioLegend, San Diego, Calif.) and APC-anti-Dectin-1 (Bio-Rad). Dead cells were excluded by Hoechst 33258 (Invitrogen, Carlsbad, Calif.) incorporation. Purified anti-FcγRIII/II (2.4G2, TONBO Bioscience, San Diego, Calif.) was used to block murine Fc-receptors at 4° C. for 10 minutes in all the stainings. Events were acquired using FACSCanto 3L (BD Biosciences). Data were analyzed with FlowJo software (Tree Star, Ashland, Oreg.).

COc1cc(Nc2ncc(F)c(Nc3ccc4c(n3)NC(=O)C(C)(C)O4)n2)cc(OC)c1OC [R406]
boost of trained immunity (TNF alpha) in absence of SHIP-1 ([1]; 1.5 μM): abolished the boost of trained immunity

CSC[C@H]1O[C@@H](n2cnc3c(N)ncnc32)[C@H](O)[C@@H]1O [MTA, 5′-Deoxy-5′-(methylthio)adenosine]
TNF-alpha overproduction in trained LysMΔSHIP-1 BMDMs ([1]; 500 μM): inhibited the increase in TNF-alpha

C#CCN(C)Cc1ccccc1 [pargyline, Pargyline]
TNF-alpha overproduction in trained LysMΔSHIP-1 BMDMs ([1]; 6 μM): had no effect

O=C1Nc2ccc(I)cc2/C1=C/c1cc(Br)c(O)c(Br)c1 [GW5074]
boost of trained immunity (TNF alpha) in absence of SHIP-1 [1]: did not affect this process

CC(C)CCC[C@@H](C)[C@H]1CC[C@H]2[C@@H]3CC[C@H]4C[C@H](N)CC[C@]4(C)[C@H]3CC[C@]12C [3AC, 3α-aminocholestane]
survival of non-trained mice (Candida albicans SC5314): did not impact on the survival | survival of Candida-trained mice (Candida albicans SC5314; training 2·10^4 C. albicans i.v. day -7): improved the survival | TNF-alpha production in supernatants ([1]; beta-glucan-trained BMDMs, different doses of 3AC 30 min before training and after wash-out, LPS challenge): boosted TNF-alpha production in a dose-dependent manner | toxicity for non-trained cells (human PBMCs): toxic | TNF-alpha production in supernatants [2]: boosted TNF-alpha production | IC50 (SHIP-1): 13.5 µM | survival of non-trained BMDMs (mouse BMDMs; 5 day-long in vitro culture in the presence of 3AC): did not survive | survival of trained BMDMs (mouse BMDMs; beta-glucan-trained, in the presence of 3AC): did not affect survival
